Assay results as given in ChEMBL document CHEMBL1955780, “In silico scaffold evaluation and solid phase approach to identify new gelatinase inhibitors” (Bioorg Med Chem, 2012).

What was measured:
[1] = biological target: 72 kDa type IV collagenase (Homo sapiens, UniProt P08253); experiment: Inhibition of full length MMP2 using Mca-Pro-Leu-Gly-Leu-Dpa-Ala-Arg-NH2 as substrate preincubated for 1 hr prior substrate addition measured after 3 hrs by spectrofluorimetry
[2] = biological target: Matrix metalloproteinase-14 (Homo sapiens, UniProt P50281); experiment: Inhibition of MMP14 catalytic domain using Mca-Pro-Leu-Gly-Leu-Dpa-Ala-Arg-NH2 as substrate preincubated for 1 hr prior substrate addition measured after 3 hrs by spectrofluorimetry
[3] = biological target: Macrophage metalloelastase (Homo sapiens, UniProt P39900); experiment: Inhibition of MMP12 catalytic domain using Mca-Pro-Leu-Gly-Leu-Dpa-Ala-Arg-NH2 as substrate preincubated for 1 hr prior substrate addition measured after 3 hrs by spectrofluorimetry
Sequence of Macrophage metalloelastase (P39900 whole entry, the tested form may be a part): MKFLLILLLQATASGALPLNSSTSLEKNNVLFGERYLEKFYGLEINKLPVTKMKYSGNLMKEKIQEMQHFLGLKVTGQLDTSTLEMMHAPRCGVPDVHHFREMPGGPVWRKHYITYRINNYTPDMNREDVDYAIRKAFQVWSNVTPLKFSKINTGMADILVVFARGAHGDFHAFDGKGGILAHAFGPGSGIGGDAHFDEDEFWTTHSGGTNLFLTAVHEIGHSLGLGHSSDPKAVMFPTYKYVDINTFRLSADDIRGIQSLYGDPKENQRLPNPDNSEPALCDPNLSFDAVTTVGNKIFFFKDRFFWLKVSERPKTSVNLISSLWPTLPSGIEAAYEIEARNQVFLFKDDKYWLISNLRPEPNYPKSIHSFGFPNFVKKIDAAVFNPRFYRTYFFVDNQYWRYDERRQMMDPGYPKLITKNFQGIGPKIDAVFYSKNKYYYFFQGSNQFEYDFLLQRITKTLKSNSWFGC

[4] = biological target: Matrix metalloproteinase-9 (Homo sapiens, UniProt P14780); experiment: Inhibition of MMP9 catalytic domain using Mca-Pro-Leu-Gly-Leu-Dpa-Ala-Arg-NH2 as substrate preincubated for 1 hr prior substrate addition measured after 3 hrs by spectrofluorimetry
Sequence of Matrix metalloproteinase-9 (P14780 whole entry, the tested form may be a part): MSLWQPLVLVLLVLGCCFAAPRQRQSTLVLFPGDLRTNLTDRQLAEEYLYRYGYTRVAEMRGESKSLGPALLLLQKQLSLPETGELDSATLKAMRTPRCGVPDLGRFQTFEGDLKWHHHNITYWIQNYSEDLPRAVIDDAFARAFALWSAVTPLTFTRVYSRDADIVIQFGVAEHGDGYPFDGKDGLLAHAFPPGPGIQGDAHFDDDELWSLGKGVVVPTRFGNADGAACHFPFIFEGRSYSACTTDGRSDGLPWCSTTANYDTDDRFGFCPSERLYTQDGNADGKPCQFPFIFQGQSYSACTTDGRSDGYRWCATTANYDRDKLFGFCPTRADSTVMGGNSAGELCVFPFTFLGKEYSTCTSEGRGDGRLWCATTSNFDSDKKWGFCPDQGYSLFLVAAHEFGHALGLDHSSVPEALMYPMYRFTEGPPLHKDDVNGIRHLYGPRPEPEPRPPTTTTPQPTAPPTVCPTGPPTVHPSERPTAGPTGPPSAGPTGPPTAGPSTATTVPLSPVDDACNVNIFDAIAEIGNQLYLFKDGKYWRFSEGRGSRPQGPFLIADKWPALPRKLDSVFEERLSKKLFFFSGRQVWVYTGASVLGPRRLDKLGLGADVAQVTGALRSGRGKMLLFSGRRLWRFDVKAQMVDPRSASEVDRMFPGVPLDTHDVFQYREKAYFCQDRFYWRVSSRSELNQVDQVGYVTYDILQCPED

[5] = biological target: Neutrophil collagenase (Homo sapiens, UniProt P22894); experiment: Inhibition of MMP8 catalytic domain using Mca-Pro-Leu-Gly-Leu-Dpa-Ala-Arg-NH2 as substrate preincubated for 1 hr prior substrate addition measured after 3 hrs by spectrofluorimetry
Sequence of Neutrophil collagenase (P22894 whole entry, the tested form may be a part): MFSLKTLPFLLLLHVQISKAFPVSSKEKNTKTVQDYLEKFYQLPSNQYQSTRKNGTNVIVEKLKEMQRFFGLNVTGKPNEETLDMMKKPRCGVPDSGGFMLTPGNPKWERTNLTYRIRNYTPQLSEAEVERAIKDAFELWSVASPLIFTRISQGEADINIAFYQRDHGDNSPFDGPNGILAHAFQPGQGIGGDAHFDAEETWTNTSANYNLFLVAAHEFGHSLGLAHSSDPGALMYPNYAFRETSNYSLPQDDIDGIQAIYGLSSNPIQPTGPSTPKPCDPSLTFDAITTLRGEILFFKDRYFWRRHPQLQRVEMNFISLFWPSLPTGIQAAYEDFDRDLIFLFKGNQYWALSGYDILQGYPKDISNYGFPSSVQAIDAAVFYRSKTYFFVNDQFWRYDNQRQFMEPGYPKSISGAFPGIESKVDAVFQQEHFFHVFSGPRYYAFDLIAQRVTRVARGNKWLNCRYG

[6] = biological target: Stromelysin-1 (Homo sapiens, UniProt P08254); experiment: Inhibition of MMP3 catalytic domain using Mca-Pro-Leu-Gly-Leu-Dpa-Ala-Arg-NH2 as substrate preincubated for 1 hr prior substrate addition measured after 3 hrs by spectrofluorimetry
Sequence of Stromelysin-1 (P08254 whole entry, the tested form may be a part): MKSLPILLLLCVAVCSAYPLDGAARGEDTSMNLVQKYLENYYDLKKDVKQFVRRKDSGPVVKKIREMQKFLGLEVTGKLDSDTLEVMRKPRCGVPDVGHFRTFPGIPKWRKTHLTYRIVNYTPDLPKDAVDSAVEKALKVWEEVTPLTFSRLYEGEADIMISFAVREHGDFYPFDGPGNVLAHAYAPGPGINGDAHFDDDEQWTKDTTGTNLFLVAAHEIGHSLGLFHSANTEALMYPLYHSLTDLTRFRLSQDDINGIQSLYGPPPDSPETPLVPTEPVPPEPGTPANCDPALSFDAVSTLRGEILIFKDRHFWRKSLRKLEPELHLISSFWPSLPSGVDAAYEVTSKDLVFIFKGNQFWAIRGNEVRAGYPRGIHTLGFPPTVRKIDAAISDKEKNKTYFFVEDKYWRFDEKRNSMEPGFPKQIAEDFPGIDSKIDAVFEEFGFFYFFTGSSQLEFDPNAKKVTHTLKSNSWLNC

[7] = biological target: T1, Interstitial collagenase (Homo sapiens, UniProt P03956); experiment: Inhibition of MMP1 catalytic domain using Mca-Pro-Leu-Gly-Leu-Dpa-Ala-Arg-NH2 as substrate preincubated for 1 hr prior substrate addition measured after 3 hrs by spectrofluorimetry
T1 sequence (P03956 whole entry): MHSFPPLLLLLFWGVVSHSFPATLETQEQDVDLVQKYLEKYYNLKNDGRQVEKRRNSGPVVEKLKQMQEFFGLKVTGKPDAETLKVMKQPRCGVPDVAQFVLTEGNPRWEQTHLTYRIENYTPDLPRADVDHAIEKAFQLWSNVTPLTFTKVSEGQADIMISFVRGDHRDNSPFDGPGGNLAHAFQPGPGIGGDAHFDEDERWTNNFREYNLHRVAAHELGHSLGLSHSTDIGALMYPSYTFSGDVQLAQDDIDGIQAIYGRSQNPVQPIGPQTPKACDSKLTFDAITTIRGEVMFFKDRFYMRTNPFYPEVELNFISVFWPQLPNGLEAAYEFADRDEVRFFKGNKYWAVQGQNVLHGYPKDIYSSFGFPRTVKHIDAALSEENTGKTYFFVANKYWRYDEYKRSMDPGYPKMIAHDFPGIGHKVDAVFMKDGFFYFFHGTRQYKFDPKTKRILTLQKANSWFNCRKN

Sequence of 72 kDa type IV collagenase (P08253 whole entry, the tested form may be a part): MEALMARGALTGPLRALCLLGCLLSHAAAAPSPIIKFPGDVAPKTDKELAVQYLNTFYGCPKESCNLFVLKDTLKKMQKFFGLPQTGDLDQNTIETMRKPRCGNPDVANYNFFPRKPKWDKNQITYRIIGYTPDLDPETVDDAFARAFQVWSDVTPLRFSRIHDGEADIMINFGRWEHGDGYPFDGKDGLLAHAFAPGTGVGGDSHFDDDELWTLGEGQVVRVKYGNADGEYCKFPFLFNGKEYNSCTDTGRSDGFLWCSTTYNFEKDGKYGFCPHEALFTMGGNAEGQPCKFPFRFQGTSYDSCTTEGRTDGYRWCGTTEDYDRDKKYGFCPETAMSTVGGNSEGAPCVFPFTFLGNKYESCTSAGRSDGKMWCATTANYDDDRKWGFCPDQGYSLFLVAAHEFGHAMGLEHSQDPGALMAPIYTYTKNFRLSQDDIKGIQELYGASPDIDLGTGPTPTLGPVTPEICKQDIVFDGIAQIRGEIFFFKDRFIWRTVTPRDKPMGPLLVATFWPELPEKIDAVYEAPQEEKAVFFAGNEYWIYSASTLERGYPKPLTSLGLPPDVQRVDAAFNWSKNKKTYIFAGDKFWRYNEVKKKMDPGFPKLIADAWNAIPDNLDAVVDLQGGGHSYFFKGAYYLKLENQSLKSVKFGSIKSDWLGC

Structure (SMILES)	IC50 [1]	IC50 [4]	also measured
O=C(NO)[C@@H]1CCCN1Cc1ccc(-c2ccccc2)cc1	> 500000 nM		
O=C(NO)[C@@H]1CS(=O)(=O)CN1S(=O)(=O)c1ccc(Oc2ccc(Cl)cc2)cc1	0.8 nM	0.5 nM	IC50 [2]: 5 nM; IC50 [3]: 19 nM; IC50 [5]: 4 nM
O=C(O)[C@@H]1CCC(=O)N1Cc1ccccc1Cl	315000 nM		
O=C(NO)[C@@H]1CS(=O)(=O)CN1S(=O)(=O)c1ccc(-c2ccccc2)cc1	53 nM	480 nM	IC50 [2]: 3800 nM; IC50 [3]: 500 nM; IC50 [6]: 4000 nM; IC50 [5]: 100 nM; IC50 [7]: 2500 nM
O=C(O)[C@@H]1CCC(=O)N1Cc1ccc(Cl)cc1	383000 nM		
O=C(NO)[C@@H]1C[S+]([O-])CN1S(=O)(=O)c1ccc(-c2ccccc2)cc1 (some centres not stated)	9 nM	600 nM	IC50 [2]: 160 nM; IC50 [3]: 2500 nM; IC50 [6]: 2000 nM; IC50 [5]: 400 nM; IC50 [7]: 4000 nM
O=C(NO)[C@@H]1CCC(=O)N1S(=O)(=O)c1ccc(-c2ccccc2)cc1	1700 nM	1900 nM	
O=C(NO)[C@@H]1CCCN1S(=O)(=O)c1ccc(-c2ccccc2)cc1	4000 nM	76000 nM	
O=C(NO)[C@@H]1CSCN1S(=O)(=O)c1ccc(-c2ccccc2)cc1	200 nM	230 nM	
O=C(NO)[C@@H]1CSCN1S(=O)(=O)c1cccc2cccnc12	710 nM	560 nM	
O=C(NO)[C@@H]1CCC(=O)N1Cc1ccc(Cl)cc1	> 500000 nM		
O=C(NO)[C@H]1CCC(=O)N1Cc1ccc(-c2ccccc2)cc1	3000 nM	30000 nM	
O=C(NO)[C@@H]1CSCN1S(=O)(=O)c1ccc(Oc2ccc(Cl)cc2)cc1	13 nM	16 nM	IC50 [6]: 160 nM; IC50 [7]: 1000 nM
O=C(O)[C@H]1CCC(=O)N1Cc1ccccc1Cl	> 500000 nM		
O=C(O)[C@H]1CCC(=O)N1Cc1ccc(Cl)cc1	> 500000 nM		
O=C(NO)[C@@H]1CCC(=O)N1Cc1ccccc1Cl	> 500000 nM		
O=C(NO)[C@H]1CCC(=O)N1Cc1ccccc1Cl	> 500000 nM	> 500000 nM	

Further lines, with some results ahead:

IC50 [1]	IC50 [4]	Structure (SMILES)	also measured
> 500000 nM		NC(=O)[C@H]1CCC(=O)N1Cc1ccc(Cl)cc1	
> 500000 nM		NC(=O)[C@H]1CCC(=O)N1Cc1ccccc1Cl	
290000 nM		O=C(O)[C@H]1CCC(=O)N1Cc1ccc(-c2ccccc2)cc1	
> 500000 nM		NC(=O)[C@@H]1CCC(=O)N1Cc1ccc(-c2ccccc2)cc1	
> 500000 nM		NC(=O)[C@@H]1CCC(=O)N1Cc1ccc(Cl)cc1	
> 500000 nM		O=C(NO)[C@@H]1C[C@@H](O)CN1Cc1ccc(-c2ccccc2)cc1	
9000 nM	144000 nM	O=C(NO)[C@@H]1CCC(=O)N1Cc1ccc(-c2ccccc2)cc1	
9 nM	2 nM	COc1ccc(Oc2ccc(S(=O)(=O)N3CSC[C@H]3C(=O)NO)cc2)cc1	
340000 nM		O=C(O)[C@@H]1CCC(=O)N1Cc1ccc(-c2ccccc2)cc1	
10 nM	5 nM	O=C(NO)[C@@H]1CSCN1S(=O)(=O)c1ccc(Oc2ccc(F)cc2)cc1	IC50 [6]: 700 nM; IC50 [7]: > 50000 nM
> 500000 nM		NC(=O)[C@H]1CCC(=O)N1Cc1ccc(-c2ccccc2)cc1	
330000 nM		O=C(NO)[C@@H]1CSCN1Cc1ccc(-c2ccccc2)cc1	
31000 nM	> 50000 nM	O=C(NO)[C@@H]1CSCN1S(=O)(=O)c1ccc2ccccc2c1	
< 0.1 nM		CCCCCc1ccc(C(=O)Nc2ccc(S(=O)(=O)N(CCN3CCOCC3)[C@@H](C(=O)NO)C(C)C)cc2)cc1	
6800 nM	47000 nM	O=C(NO)[C@@H]1CSC(=O)N1Cc1ccc(-c2ccccc2)cc1	
> 500000 nM		NC(=O)[C@@H]1CCC(=O)N1Cc1ccccc1Cl	
400000 nM	430000 nM	O=C(NO)[C@H]1CCC(=O)N1Cc1ccc(Cl)cc1	
